Test results as given in US11591355B2 (Peloton Therapeutics, Inc., priority 2017, dated 2023).

How the values were obtained:
Human CD73 = molecular target: T1, Human CD73 (Homo sapiens, UniProt P21589); experiment: CD73 Enzyme Assay; type: biochemical; settings: 0.25 nM hCD73, 25 μM AMP, kinetic read at 360 nm; read-out: CD73 Enzyme Assay IC50
T1 construct: purchased R&D Systems; host or cells: CHO cells
T1 sequence (P21589 27-549): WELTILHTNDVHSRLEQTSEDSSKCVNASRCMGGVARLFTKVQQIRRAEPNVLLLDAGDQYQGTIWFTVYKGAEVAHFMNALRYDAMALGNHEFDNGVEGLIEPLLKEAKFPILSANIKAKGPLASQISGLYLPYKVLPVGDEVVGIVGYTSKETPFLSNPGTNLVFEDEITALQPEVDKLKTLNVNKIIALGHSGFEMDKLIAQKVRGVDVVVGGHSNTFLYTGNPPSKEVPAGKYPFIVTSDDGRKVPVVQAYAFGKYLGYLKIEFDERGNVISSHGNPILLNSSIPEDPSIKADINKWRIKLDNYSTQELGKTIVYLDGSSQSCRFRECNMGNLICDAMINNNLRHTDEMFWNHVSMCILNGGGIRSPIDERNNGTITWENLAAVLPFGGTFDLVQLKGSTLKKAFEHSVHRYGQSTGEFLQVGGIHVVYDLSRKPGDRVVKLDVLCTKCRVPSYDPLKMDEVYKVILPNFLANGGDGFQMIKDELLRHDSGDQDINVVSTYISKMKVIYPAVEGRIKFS

[1] = molecular target: T2, CD73 on U138 human neuroglioma cells (Homo sapiens, UniProt P21589); experiment: CD73 Cell-Based Assay; settings: U138 cells, AMP substrate, 2 hours at 37° C., inorganic phosphate by malachite green
T2 construct: U138 cells were obtained from ATCC and cultured in DMEM with 10% FBS; host or cells: U138 human neuroglioma cells
T2 sequence (P21589 27-549): T1 sequence (P21589 27-549)
Procedure, shortened: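 Whole U138 cells washed free of phosphate were incubated with 200 μM AMP (mixture concentration before equal-volume addition) plus compound in HEPES-buffered saline, pH 7.4, for 2 h at 37 °C, 5% CO2. Adenosine-forming activity read as inorganic phosphate released into supernatant by malachite green.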

| Structure (SMILES) | IC50 (Human CD73) [nM] | IC50 [1] [nM] |
| --- | --- | --- |
| CC(C)OP(=O)(O)CS(=O)(=O)C[C@H]1O[C@@H](n2ccc3c(NC4CCCC4)nc(Cl)nc32)[C@H](O)[C@@H]1O [Compound 160, [(2S,3S,4R,5R)-5-[2-chloro-4-(cyclo-pentylamino)pyrrolo-[2,3-d]pyrimidin-7-yl]-3,4-dihydroxy-tetrahydrofuran-2-yl]methylsulfonyl-methyl-isopropoxy-phosphinic acid] | 100 to 1000 | 100 to 1000 |
| CC(C)(C)C(=O)OCOP(=O)(O)CS(=O)(=O)C[C@H]1O[C@@H](n2ccc3c(NC4CCCC4)nc(Cl)nc32)[C@H](O)[C@@H]1O [Compound 161, [(2S,3S,4R,5R)-5-[2-chloro-4-(cyclopentyl-amino)pyrrolo[2,3-d]-pyrimidin-7-yl]-3,4-dihydroxy-tetrahydro-furan-2-yl]methyl-sulfonylmethyl-(2,2-dimethylpropanoyl-oxymethoxy)phos-phinic acid] | < 10 | < 10 |
| CC(C)Nc1nc(Cl)nc2c1ccn2[C@@H]1O[C@H](CS(=O)(=O)CP(=O)(O)O)[C@@H](O)[C@H]1O [Compound 162, [(2S,3S,4R,5R)-5-[2-chloro-4-(isopropyl-amino)pyrrolo[2,3-d]-pyrimidin-7-yl]-3,4-dihydroxy-tetrahydro-furan-2-yl]methyl-sulfonylmethylphos-phonic acid] | 10 to 100 | 10 to 100 |
| O=P(O)(O)CS(=O)(=O)C[C@H]1O[C@@H](n2ccc3c(N4CCCC4)nc(Cl)nc32)[C@H](O)[C@@H]1O [Compound 163, [(2S,3S,4R,5R)-5-(2-chloro-4-pyrrolidin-1-yl-pyrrolo[2,3-d]-pyrimidin-7-yl)-3,4-dihydroxy-tetrahydro-furan-2-yl]methyl-sulfonylmethylphos-phonic acid] | 10 to 100 | 10 to 100 |
| O=P(O)(O)CS(=O)(=O)C[C@H]1O[C@@H](n2ccc3c(N4CCC(F)(F)C4)nc(Cl)nc32)[C@H](O)[C@@H]1O [Compound 164, [(2S,3S,4R,5R)-5-[2-chloro-4-(3,3-difluoro-pyrrolidin-1-yl)-pyrrolo[2,3-d]-pyrimidin-7-yl]-3,4-dihydroxy-tetrahydro-furan-2-yl]methyl-sulfonylmethylphos-phonic acid] | < 10 | < 10 |
| C[C@@H](Nc1nc(Cl)nc2c1ccn2[C@@H]1O[C@H](CS(=O)(=O)CP(=O)(O)O)[C@@H](O)[C@H]1O)c1ccc(F)cc1 [Compound 167, [(2S,3S,4R,5R)-5-[2-chloro-4-[[(1R)-1-(4-fluorophenyl)ethyl]-amino]pyrrolo[2,3-d]-pyrimidin-7-yl]-3,4-dihydroxy-tetrahydro-furan-2-yl]methyl-sulfonylmethylphos-phonic acid] | < 10 | < 10 |
| C[C@@H](Nc1nc(Cl)nc2c1ccn2[C@@H]1O[C@H](CS(=O)(=O)CP(=O)(O)O)[C@@H](O)[C@H]1O)c1ccccc1F [Compound 168, [(2S,3S,4R,5R)-5-[2-chloro-4-[[(1R)-1-(2-fluorophenyl)ethyl]-amino]pyrrolo[2,3-d]-pyrimidin-7-yl]-3,4-dihydroxy-tetrahydro-furan-2-yl]methyl-sulfonylmethylphos-phonic acid] | < 10 | < 10 |
| Cc1ccc([C@@H](C)Nc2nc(Cl)nc3c2ccn3[C@@H]2O[C@H](CS(=O)(=O)CP(=O)(O)O)[C@@H](O)[C@H]2O)cc1 [Compound 169, [(2S,3S,4R,5R)-5-[2-chloro-4-[[(1R)-1-(p-tolyl)ethyl]amino]-pyrrolo[2,3-d]-pyrimidin-7-yl]-3,4-dihydroxy-tetrahydro-furan-2-yl]methyl-sulfonylmethylphos-phonic acid] | < 10 | < 10 |
| Cc1ccc([C@H](C)Nc2nc(Cl)nc3c2ccn3[C@@H]2O[C@H](CS(=O)(=O)CP(=O)(O)O)[C@@H](O)[C@H]2O)cc1 [Compound 170, [(2S,3S,4R,5R)-5-[2-chloro-4-[[(1S)-1-(p-tolyl)ethyl]amino]-pyrrolo[2,3-d]-pyrimidin-7-yl]-3,4-dihydroxy-tetrahydro-furan-2-yl]methyl-sulfonylmethylphos-phonic acid] | < 10 | < 10 |
| O=P(O)(O)CS(=O)(=O)C[C@H]1O[C@@H](n2ccc3c(NC4CCC(F)(F)C4)nc(Cl)nc32)[C@H](O)[C@@H]1O (stereo partly drawn) [Compound 171, [(2S,3S,4R,5R)-5-[2-chloro-4-[(3,3-difluoro-cyclopentyl)amino]-pyrrolo[2,3-d]-pyrimidin-7-yl]-3,4-dihydroxy-tetrahydro-furan-2-yl]methyl-sulfonylmethylphos-phonic acid] | < 10 | < 10 |
| O=P(O)(O)CS(=O)(=O)C[C@H]1O[C@@H](n2ccc3c(NC4CCC4)nc(Cl)nc32)[C@H](O)[C@@H]1O [Compound 172, [(2S,3S,4R,5R)-5-[2-chloro-4-(cyclobutyl-amino)pyrrolo[2,3-d]-pyrimidin-7-yl]-3,4-dihydroxy-tetrahydro-furan-2-yl]methyl-sulfonylmethylphos-phonic acid] | < 10 | < 10 |
| O=P(O)(O)CS(=O)(=O)C[C@H]1O[C@@H](n2ccc3c(NC4CC(F)(F)C4)nc(Cl)nc32)[C@H](O)[C@@H]1O [Compound 173, [(2S,3S,4R,5R)-5-[2-chloro-4-[(3,3-difluoro-cyclobutyl)amino]-pyrrolo[2,3-d]-pyrimidin-7-yl]-3,4-dihydroxy-tetrahydro-furan-2-yl]methyl-sulfonylmethylphos-phonic acid] | < 10 | < 10 |
| O=P(O)(O)CS(=O)(=O)C[C@H]1O[C@@H](n2ccc3c(NC4CCCCC4)nc(Cl)nc32)[C@H](O)[C@@H]1O [Compound 174, [(2S,3S,4R,5R)-5-[2-chloro-4-(cyclohexyl-amino)pyrrolo[2,3-d]-pyrimidin-7-yl]-3,4-dihydroxy-tetrahydro-furan-2-yl]methyl-sulfonylmethylphos-phonic acid] | < 10 | < 10 |
| O=P(O)(O)CS(=O)(=O)C[C@H]1O[C@@H](n2ccc3c(N4CC5CC5C4)nc(Cl)nc32)[C@H](O)[C@@H]1O (stereo partly drawn) [Compound 175, [(2S,3S,4R,5R)-5-[4-(3-azabicyclo[3.1.0]-hexan-3-yl)-2-chloro-pyrrolo[2,3-d]-pyrimidin-7-yl]-3,4-dihydroxy-tetrahydro-furan-2-yl]methyl-sulfonylmethylphos-phonic acid] | 10 to 100 | 10 to 100 |
| CCNc1nc(Cl)nc2c1ccn2[C@@H]1O[C@H](CS(=O)(=O)CP(=O)(O)O)[C@@H](O)[C@H]1O [Compound 176, [(2S,3S,4R,5R)-5-[2-chloro-4-(ethylamino)-pyrrolo[2,3-d]-pyrimidin-7-yl]-3,4-dihydroxy-tetrahydro-furan-2-yl]methyl-sulfonylmethylphos-phonic acid] | 10 to 100 | 10 to 100 |
| CC(C)N(C)c1nc(Cl)nc2c1ccn2[C@@H]1O[C@H](CS(=O)(=O)CP(=O)(O)O)[C@@H](O)[C@H]1O [Compound 177, [(2S,3S,4R,5R)-5-[2-chloro-4-[isopropyl-(methyl)amino]-pyrrolo[2,3-d]-pyrimidin-7-yl]-3,4-dihydroxy-tetrahydro-furan-2-yl]methyl-sulfonylmethylphos-phonic acid] | < 10 | < 10 |
| C[C@@H](Nc1nc(Cl)nc2c1ccn2[C@@H]1O[C@H](CS(=O)(=O)CP(=O)(O)O)[C@@H](O)[C@H]1O)c1ccc(F)cc1F [Compound 178, (((((2S,3S,4R,5R)-5-(2-chloro-4-(((R)-1-(2,4-difluorophenyl)ethyl)amino)-7H-pyrrolo[2,3-d]pyrimidin-7-yl)-3,4-dihydroxytetrahydrofuran-2-yl)methyl)sulfonyl)methyl)phosphonic acid] | < 10 | < 10 |
| C[C@@H](Nc1nc(Cl)nc2c1ccn2[C@@H]1O[C@H](CS(=O)(=O)CP(=O)(O)O)[C@@H](O)[C@H]1O)c1ccc(Cl)cc1 [Compound 179, [(2S,3S,4R,5R)-5-[2-chloro-4-[[(1R)-1-(4-chlorophenyl)ethyl]-amino]pyrrolo[2,3-d]-pyrimidin-7-yl]-3,4-dihydroxy-tetrahydro-furan-2-yl]methyl-sulfonylmethylphos-phonic acid] | < 10 | < 10 |
| C[C@@H](Nc1nc(Cl)nc2c1ccn2[C@@H]1O[C@H](CS(=O)(=O)CP(=O)(O)O)[C@@H](O)[C@H]1O)c1cccc(C#N)c1 [Compound 180, [(2S,3S,4R,5R)-5-[2-chloro-4-[[(1R)-1-(3-cyanophenyl)ethyl]-amino]pyrrolo[2,3-d]-pyrimidin-7-yl]-3,4-dihydroxy-tetrahydro-furan-2-yl]methyl-sulfonylmethylphos-phonic acid] | < 10 | < 10 |
| C[C@H](Nc1nc(Cl)nc2c1ccn2[C@@H]1O[C@H](CS(=O)(=O)CP(=O)(O)O)[C@@H](O)[C@H]1O)c1ccc(C#N)cc1 [Compound 181, [(2S,3S,4R,5R)-5-[2-chloro-4-[[(1S)-1-(4-cyanophenyl)ethyl]-amino]pyrrolo[2,3-d]-pyrimidin-7-yl]-3,4-dihydroxy-tetrahydro-furan-2-yl]methyl-sulfonylmethylphos-phonic acid] | < 10 | < 10 |
